Results from patent publication US4704395A, “Cyclic ether esters of 2-substituted-6-(substituted and unsubstituted) dihydrolysergic acid useful as 5HT receptor antagonists” (Eli Lilly and Company, priority 1985, dated 1987).

Target: T1, 5HT2 receptors (Rattus norvegicus, UniProt P14842)
T1 construct: their external jugular veins and thoracic aortas dissected free of connective tissue; from tissue; host or cells: external jugular vein of male Wistar rats
Assay: Apparent dissociation constants (KB) for 5HT2 receptors determined in the rat jugular vein (antagonism of serotonin contraction)
Conditions: antagonist incubated one hour, 37° C., maleate salt, read-out: Apparent Dissociation Constants for 5HT2 receptors, -Log Kb ± S.E. (converted)
Method: An initial optimum resting force of 1 and 4 g was applied to the jugular vein and aorta, respectively. […] Exp. Ther., 205, 400 (1978). Alpha receptor antagonist activity was evaluated in the aorta.

T1 sequence (P14842 whole entry): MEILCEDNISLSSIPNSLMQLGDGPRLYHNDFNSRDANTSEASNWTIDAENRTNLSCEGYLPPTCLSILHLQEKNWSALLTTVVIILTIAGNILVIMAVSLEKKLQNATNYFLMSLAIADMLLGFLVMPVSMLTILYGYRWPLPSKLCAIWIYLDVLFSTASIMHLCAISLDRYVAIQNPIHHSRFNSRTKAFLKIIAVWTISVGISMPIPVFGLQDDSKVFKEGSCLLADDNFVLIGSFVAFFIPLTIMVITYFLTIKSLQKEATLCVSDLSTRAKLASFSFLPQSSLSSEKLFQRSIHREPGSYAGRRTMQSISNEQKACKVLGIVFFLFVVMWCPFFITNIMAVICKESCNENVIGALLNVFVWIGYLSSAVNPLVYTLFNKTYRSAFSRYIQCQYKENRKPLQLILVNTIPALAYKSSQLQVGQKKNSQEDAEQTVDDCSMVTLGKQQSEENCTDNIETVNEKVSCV

With `CC(C)n1cc2c3c(cccc31)[C@H]1C[C@@H](C(=O)OCC3CCCO3)CN(C)[C@@H]1C2` (stereo partly shown) the Kb was 6.31 nM.

Compound `CC(C)n1cc2c3c(cccc31)[C@H]1C[C@@H](C(=O)OCC3CCCCO3)CN(C)[C@@H]1C2` (stereo partly shown) has a Kb of 1.91 nM.

`CC(C)n1cc2c3c(cccc31)[C@H]1C[C@@H](C(=O)OC3CCOCC3)CN(C)[C@@H]1C2` gave a Kb of 0.129 nM.

`CC(C)n1cc2c3c(cccc31)[C@H]1C[C@@H](C(=O)OCCCC3CCCO3)CN(C)[C@@H]1C2` (stereo partly shown) was tested, and the Kb was 5.62 nM.
